Columns and labels:
Test in all cases: Kinase inhibitor library screening, PrestoBlue cell viability, 1 or 10 μM, 72 h
[1] = tested on: IGR37-GP cells (Dabrafenib-resistant); settings: IGR37 GP, 72 h
[2] = tested on: 501Mel-GP cells (Dabrafenib-resistant); settings: 501Mel GP, 72 h
[3] = tested on: 501Mel-XP cells (Vemurafenib-resistant); settings: 501Mel XP, 72 h
[4] = tested on: IGR37 cells (parental); settings: IGR37 Parental, 72 h
[5] = tested on: A375-XP cells (Vemurafenib-resistant); settings: A375 XP, 72 h
[6] = tested on: A375-GP cells (Dabrafenib-resistant); settings: A375 GP, 72 h
[7] = tested on: IGR37-XP cells (Vemurafenib-resistant); settings: IGR37 XP, 72 h
[8] = tested on: A375 cells (parental); settings: A375 Parental, 72 h
[9] = tested on: 501Mel cells (parental); settings: 501Mel Parental, 72 h
In short: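 Values are % viability versus untreated wells, measured by PrestoBlue after a 72 h drug exposure. Screens covered the parental line plus sublines rendered resistant to Vemurafenib or Dabrafenib, each analysed in at least duplicate.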

SMILES: COc1cccc2cc(-c3nc([C@H]4CC[C@H](C(=O)O)CC4)n4ncnc(N)c34)[nH]c12 [OSI-027]
- Cell viability in kinase inhibitor library screening, IGR37 GP, 10μΜ ([1]; 10μΜ): 40%
- Cell viability in kinase inhibitor library screening, IGR37 GP, 1μΜ ([1]; 1μΜ, in %): 81.3
- Cell viability in kinase inhibitor library screening, 501Mel GP, 1μΜ ([2]; 1μΜ, in %): 59.2
- Cell viability in kinase inhibitor library screening, 501Mel GP, 10μΜ ([2]; 10μΜ, in %): 13.9
- Cell viability in kinase inhibitor library screening, 501Mel XP, 1μΜ ([3]; 1μΜ, in %): 55.5
- Cell viability in kinase inhibitor library screening, 501Mel XP, 10μΜ ([3]; 10μΜ, in %): 6.8
- Cell viability in kinase inhibitor library screening, IGR37 Parental, 1μΜ ([4]; 1μΜ, in %): 84.3
- Cell viability in kinase inhibitor library screening, IGR37 Parental, 10μΜ ([4]; 10μΜ, in %): 46.6
- Cell viability in kinase inhibitor library screening, A375 XP, 1μΜ ([5]; 1μΜ): 55.5
- Cell viability in kinase inhibitor library screening, A375 XP, 10μΜ ([5]; 10μΜ): 19.1
- Cell viability in kinase inhibitor library screening, A375 GP, 1μΜ ([6]; 1μΜ): 62.5
- Cell viability in kinase inhibitor library screening, A375 GP, 10μΜ ([6]; 10μΜ): 21.4
- Cell viability in kinase inhibitor library screening, IGR37 XP, 1μΜ ([7]; 1μΜ, in %): 72.2
- Cell viability in kinase inhibitor library screening, A375 Parental, 10μΜ ([8]; 10μΜ): 24.3
- Cell viability in kinase inhibitor library screening, A375 Parental, 1μΜ ([8]; 1μΜ): 72.3
- Cell viability in kinase inhibitor library screening, 501Mel Parental, 1μΜ ([9]; 1μΜ, in %): 74.7
- Cell viability in kinase inhibitor library screening, 501Mel Parental, 10μΜ ([9]; 10μΜ, in %): 14.4

SMILES: C#Cc1cccc(Nc2ncnc3cc(OCCOC)c(OCCO)cc23)c1 [OSI-420 (Desmethyl Erlotinib)]
- cell viability, IGR37 GP, 10μΜ ([1]; 10μΜ): 81.4%
- cell viability, IGR37 GP, 1μΜ ([1]; 1μΜ, in %): 91.6
- cell viability, 501Mel GP, 1μΜ ([2]; 1μΜ, in %): 106.0
- cell viability, 501Mel GP, 10μΜ ([2]; 10μΜ, in %): 79.2
- cell viability, 501Mel XP, 1μΜ ([3]; 1μΜ, in %): 117.2
- cell viability, 501Mel XP, 10μΜ ([3]; 10μΜ, in %): 44.4
- cell viability, IGR37 Parental, 1μΜ ([4]; 1μΜ, in %): 108.5
- cell viability, IGR37 Parental, 10μΜ ([4]; 10μΜ, in %): 104.1
- cell viability, A375 XP, 10μΜ ([5]; 10μΜ, in %): 79.2
- cell viability, A375 GP, 1μΜ ([6]; 1μΜ, in %): 96.7
- cell viability, A375 GP, 10μΜ ([6]; 10μΜ, in %): 88.2
- cell viability, IGR37 XP, 10μΜ ([7]; 10μΜ): 45.3%
- cell viability, IGR37 XP, 1μΜ ([7]; 1μΜ, in %): 83.7
- cell viability, A375 Parental, 10μΜ ([8]; 10μΜ, in %): 54.9
- cell viability, 501Mel Parental, 1μΜ ([9]; 1μΜ, in %): 109.3
- cell viability, 501Mel Parental, 10μΜ ([9]; 10μΜ, in %): 100.2

SMILES: O=C(Nc1ccc(OC(F)(F)F)cc1)c1sccc1NCc1ccnc2ccccc12 [OSI-930]
- cell viability (kinase inhibitor library screening) ([1]; 1μΜ): 88.5%
- cell viability (kinase inhibitor library screening) ([1]; 10μΜ): 90.3%
- cell viability (kinase inhibitor library screening) ([2]; 1μΜ): 96.5%
- cell viability (kinase inhibitor library screening) ([2]; 10μΜ): 73.5%
- cell viability (kinase inhibitor library screening) ([3]; 1μΜ): 92.9%
- cell viability (kinase inhibitor library screening) ([3]; 10μΜ): 73.6%
- cell viability (kinase inhibitor library screening) ([4]; 1μΜ): 96.0%
- cell viability (kinase inhibitor library screening) ([4]; 10μΜ): 89.7%
- cell viability (kinase inhibitor library screening) ([5]; 1μΜ): 93.4%
- cell viability (kinase inhibitor library screening) ([5]; 10μΜ): 71.6%
- cell viability (kinase inhibitor library screening) ([6]; 1μΜ): 86.8%
- cell viability (kinase inhibitor library screening) ([6]; 10μΜ): 55.3%
- cell viability (kinase inhibitor library screening) ([7]; 1μΜ): 100.2%
- cell viability (kinase inhibitor library screening) ([7]; 10μΜ): 70.0%
- cell viability (kinase inhibitor library screening) ([8]; 10μΜ): 77.6%
- cell viability (kinase inhibitor library screening) ([8]; 1μΜ): 97.9%
- cell viability (kinase inhibitor library screening) ([9]; 1μΜ): 100.2%
- cell viability (kinase inhibitor library screening) ([9]; 10μΜ): 85.8%

SMILES: NCC(=O)Nc1ccc(-n2nc(C(F)(F)F)cc2-c2ccc3c(ccc4ccccc43)c2)cc1 [OSU-03012]
- Cell viability in kinase inhibitor library screening, IGR37 GP, 10μΜ ([1]; 10μΜ): 2.3%
- Cell viability in kinase inhibitor library screening, IGR37 GP, 1μΜ ([1]; 1μΜ, in %): 99.0
- Cell viability in kinase inhibitor library screening, 501Mel GP, 1μΜ ([2]; 1μΜ, in %): 94.0
- Cell viability in kinase inhibitor library screening, 501Mel GP, 10μΜ ([2]; 10μΜ, in %): -0.274
- Cell viability in kinase inhibitor library screening, 501Mel XP, 1μΜ ([3]; 1μΜ, in %): 90.0
- Cell viability in kinase inhibitor library screening, 501Mel XP, 10μΜ ([3]; 10μΜ, in %): -0.352
- Cell viability in kinase inhibitor library screening, IGR37 Parental, 10μΜ ([4]; 10μΜ, in %): 0.5
- Cell viability in kinase inhibitor library screening, A375 XP, 1μΜ ([5]; 1μΜ): 91.6
- Cell viability in kinase inhibitor library screening, A375 XP, 10μΜ ([5]; 10μΜ): 0.7
- Cell viability in kinase inhibitor library screening, A375 GP, 1μΜ ([6]; 1μΜ): 89.7
- Cell viability in kinase inhibitor library screening, A375 GP, 10μΜ ([6]; 10μΜ): 0.547
- Cell viability in kinase inhibitor library screening, IGR37 XP, 10μΜ ([7]; 10μΜ): 1.4%
- Cell viability in kinase inhibitor library screening, IGR37 XP, 1μΜ ([7]; 1μΜ, in %): 109.9
- Cell viability in kinase inhibitor library screening, A375 Parental, 10μΜ ([8]; 10μΜ): 0.756
- Cell viability in kinase inhibitor library screening, A375 Parental, 1μΜ ([8]; 1μΜ): 91.6
- Cell viability in kinase inhibitor library screening, 501Mel Parental, 1μΜ ([9]; 1μΜ, in %): 91.0
- Cell viability in kinase inhibitor library screening, 501Mel Parental, 10μΜ ([9]; 10μΜ, in %): 0.3

Source: article PMC6364417, “Kinase inhibitor library screening identifies synergistic drug combinations effective in sensitive and resistant melanoma cells” (Journal of Experimental & Clinical Cancer Research : CR, 2019)
